Data reported in US20060189699A1, “Antimicrobial trinervitane derivatives” (Commonwealth Scientific and Industrial Researh Org, priority 2003, published 2006).
Entries after “also recorded” stand apart in the source; their conditions may differ. Where two headings read alike, the source gives them in different places.

Experiments:
[1] = system: Bacillus subtilis (ATCC Strain 6633); assay: modified agar bioassay for weak antimicrobial activity (clear zone); type: cell-based; conditions: for level of antimicrobial activity relative to trinervitadienes previously isolated from N. triodiae: screening assays, qualitative, potency not determined quantitatively
Experimental: Extracts of the worker and soldier castes of the nasute termite species Nasutitermes exitiosus (Hill) (Isoptera:Termitidae) were screened against Bacillus subtilis (ATCC Strain 6633) at a concentration of 4.0 mg/ml in a bioassay. […] The only difference between the assay used in the current work and that described previously (WO 01/90035) is that in the current case the density of bacterial cells in the Luria-Bertani agar medium was ten times lower than that described in the earlier specification.
Twelve mL of a 70% methanol extract of N. exitiosus soldiers (containing 86 mg of solute) was fractionated by reverse-phase HPLC using a semi-preparative column at a flow rate of 4 ml/min and a gradient from water containing 0.05% (v/v) trifluroacetic acid to 100% acetonitrile over 20 minutes and then 100% acetonitrile for a further 15 minutes. The UV absorbance of the eluant was monitored at 230 nm. Fractions were collected over 35 minutes. Corresponding fractions were pooled across replicate separation runs and the pooled fractions were evaporated to dryness under nitrogen. Residues of the fractions were redissolved in HPLC grade water (fractions from 1-8 minutes), 70% aqueous methanol (9-15 minutes), or methanol (16-35 minutes).

Bacillus subtilis = conditions: WO 01/90035, as compound 9; cited from earlier work
[2] = isolated HPLC sub-fractions / purified compounds
[3] = purified components of fraction F2, modified antimicrobial assay

Row | Compound | antimicrobial / biological activity [1, 2] | clear zone diameter [1, 3] [mm] | level of antimicrobial activity relative to trinervitadienes previously isolated from N. triodiae [1] | clear zone diameter ([1]; pooled reverse-phase HPLC fractions of soldier extract, quantity corresponding to 20 μL of crude extract) [mm] | antimicrobial activity shown in the earlier patent specification (Bacillus subtilis) | antimicrobial / biological activity [1]
1 | C=C1/C2=C\C[C@@H](C)CCCC(=C)[C@@H]3CC[C@@](C)([C@H]13)[C@@H](O)[C@@H]2O [Q, 1(14),8(19),15(17)-trinervitatriene-2β,3α-diol] | biologically active | 4 | qualitatively similar levels of antimicrobial activity | – | – | –
2 | C=C1/C2=C\C[C@@H](C)CCC/C(C)=C3/CC[C@@](C)([C@H]13)[C@@H](O)[C@@H]2O [R, 1(14),7(8),15(17)-trinervitatriene-2β,3α-diol] | biologically active | 5 | qualitatively similar levels of antimicrobial activity | – | – | –
3 | C=C1/C2=C\C[C@@H](C)C/C=C/C(=C)[C@@H]3CC[C@@](C)([C@H]13)[C@@H](O)[C@@H]2O [P, 9E-1(14),8(19),9(10),15(17)-trinervitatetraene-2β,3α-diol] | – | – | qualitatively similar levels of antimicrobial activity | 4 | – | –
4 | C/C1=C/CC[C@H](C)CCC2C(C)[C@@H]3C1CC[C@]3(C)[C@@H](O)[C@@H]2O (stereo partly drawn) [S, 1(15),8(9)-trinervitadiene-2β,3α-diol] | biologically active; also recorded: confirmed | – | – | – | antimicrobial activity | –
5 | 1(15),8(9)-trinervitadiene-3α-ol-2-one | biologically active; also recorded: antimicrobial compound; also recorded: confirmed | – | qualitatively similar levels of antimicrobial activity | – | – | –
6 | 1(15),8(19)-trinervitadiene-2β,3α,9α-triol 2,3,9-triacetate [U] | – | – | qualitatively similar levels of antimicrobial activity | – | – | biologically active; also recorded: antimicrobial activity; also recorded: confirmed
